Reference: article PMC7129073 (Clinical Microbiology and Infection, 2015)
≈ marks a conversion by molar mass, not a printed value.

Assays:
[1] = test system: group A beta-haemolytic streptococcal (GABHS) pharyngitis; test: Phase III trial, GABHS pharyngitis/tonsillitis; type: in vivo, human
E. coli (Ec) = test: E-test, recurrent UTI isolates of children; type: cell-based, Escherichia coli
MDR-MRSA = test: MIC, MBC; type: cell-based, Staphylococcus aureus; settings: time kill, two strains
[2] = Phase 3 trial, complicated intra-abdominal infections; type: in vivo, human
CA-MRSA = test: MIC, MBC; type: cell-based, Staphylococcus aureus; settings: time kill, two strains
Acinetobacter = test: Disk diffusion; type: cell-based; settings: 37 isolates selected as resistant to beta-lactams
Nocardia spp. [3] = test: E-test on Mueller Hinton agar, 81 clinical isolates; type: cell-based
[4] = test system: inducible Enterobacteriaceae; test: SMART 2003, intraabdominal isolates; type: cell-based
Enterobacteriaceae = test: SMART 2003 Europe, microdilution; type: cell-based; settings: 1948 isolates
Klebsiella = test: SMART 2003 Europe, microdilution; type: cell-based, Klebsiella spp.; settings: 341 isolates
Nocardia spp. [5] = test: Time-kill at peak-serum concentrations, seven strains; type: cell-based; settings: of seven strains; 24, 72 h
[6] = test system: Salmonella serotype Typhimurium; test: Disk diffusion, food isolates Spain; type: cell-based; settings: n = 53
[7] = test system: Salmonella, other 49 serotypes; test: Disk diffusion, food isolates Spain; type: cell-based; settings: n = 115
K. pneumoniae = test: MIC; type: cell-based, Klebsiella pneumoniae; settings: Klebsiella pneumoniae
Pseudomonas aeruginosa = test: MIC, strains from cystic fibrosis patients; settings: by MIC
E. coli = test: SMART 2003 Europe, microdilution; type: cell-based, Escherichia coli; settings: 1106 isolates
Escherichia coli = test: Vitek 2 susceptibility, urine isolates of children; type: cell-based
[8] = test system: Salmonella serotype Enteritidis; test: Disk diffusion, food isolates Spain; type: cell-based; settings: n = 96
P. aeruginosa = test: Disk diffusion, urine isolates of BPH patients
S. pneumoniae = test: Broth microdilution; type: cell-based, Streptococcus pneumoniae; settings: 275 isolates
H. influenzae = test: Broth microdilution; type: cell-based, Haemophilus influenzae; settings: 267 isolates
Shigella spp. = test: Disk diffusion, stool isolates Tehran; type: cell-based; settings: 96 isolates
[9] = test system: biofilms of S. aureus (SA204 and SA195) and S. epidermidis (ATCC35983 and ATCC35984); test: Antibiotic lock, in vitro biofilm on polyurethane film, viable counts; type: cell-based, Staphylococcus species; settings: any of the time intervals examined
MSSA = test: Agar dilution MIC; type: cell-based, Staphylococcus aureus
S. pneumoniae (SPN) = test: SENTRY Brazil, NCCLS broth microdilution; type: cell-based, Streptococcus pneumoniae
Salmonella spp. = test: Agar dilution susceptibility, gastroenteritis isolates Cuba; type: cell-based; settings: 34 strains, 2002
Escherichia coli O157:H7 = test: Kirby-Bauer susceptibility; type: cell-based; settings: 30 strains, 1990–2003
H. influenzae (HI) = test: SENTRY Brazil, NCCLS broth microdilution; type: cell-based, Haemophilus influenzae
nontyphoidal Salmonella = test: Agar dilution, isolates from chickens 1998–2004; type: cell-based, Salmonella spp.

## CC[C@H]1OC(=O)[C@H](C)[C@@H](O[C@H]2C[C@@](C)(OC)[C@@H](O)[C@H](C)O2)[C@H](C)[C@@H](O[C@@H]2O[C@H](C)C[C@H](N(C)C)[C@H]2O)[C@](C)(O)C[C@@H](C)CN(C)[C@H](C)[C@@H](O)[C@]1(C)O [3-day azithromycin, azithromycin]
[1]; BPP population, single 2.0 g dose vs 500 mg QD for 3 days
  bacteriologic eradication at TOC (Day 24–28): 81.4%
[1]; TOC
  clinical cure: 96.7%
[1]; in vivo
  bacteriologic recurrence at long-term follow up (Day 38–45): 7.7%
[1]; most frequent adverse event
  diarrhoea/loose stools: 11%

## Cc1cc(NS(=O)(=O)c2ccc(N)cc2)no1 [Sulfa, sulfamethoxazol]
E. coli (Ec); 3 isolates
  MIC of sensitive isolates carrying sulI and sulII: 8 µg/mL
E. coli (Ec); 6 strains
  MIC of sensitive strains without the three genes: 12 to 32 µg/mL
E. coli (Ec); 20 out of 29
  resistant isolates: 65.5%

## CN(C)c1cc(NC(=O)CNC(C)(C)C)c(O)c2c1C[C@H]1C[C@H]3[C@H](N(C)C)C(O)=C(C(N)=O)C(=O)[C@@]3(O)C(O)=C1C2=O [TGC, tigecycline]
MDR-MRSA
  Δ Log10 CFU/ml: −2.59 Log10 CFU/ml
[2]; TGC 100 mg then 50 mg q12h iv, IMI/CIS 500/500 mg q6h, 5–14 days
  clinical cure rate at TOC, ME group: 80.6%
[2]; adverse events
  nausea: 31.0%
  vomiting: 25.7%
[2]; same regimens
  clinical cure rate at TOC, m-mITT cohort: 73.5%
CA-MRSA
  Δ Log10 CFU/ml: −2.37 Log10 CFU/ml

## NCC[C@H](O)C(=O)N[C@@H]1C[C@H](N)[C@@H](O[C@H]2O[C@H](CN)[C@@H](O)[C@H](O)[C@H]2O)[C@H](O)[C@H]1O[C@H]1O[C@H](CO)[C@@H](O)[C@H](N)[C@H]1O [amikacin]
Acinetobacter
  resistant isolates: 62.1%
Nocardia spp. [3]; Nocardia
  MIC50: 0.38 µg/mL (≈ 0.649 µM)
  MIC90: 1 µg/mL (≈ 1.71 µM)
Nocardia spp. [3]; read after 48 and 72 h
  MIC range: 0.016 to 2 µg/mL
[4]; A/P (N = 200)
  % susceptible: 91%
[4]; EU (N = 354)
  % susceptible: 99%
[4]; NA (N = 163)
  % susceptible: 99%
Enterobacteriaceae
  per cent susceptible: 99%
Klebsiella
  per cent susceptible: 98%
Nocardia spp. [5]
  strains with bactericidal activity (≥3 log10 cfu/ml decrease): 7 strains
[6]
  resistance rate (NCCLS M100-S13): 0%
[7]
  resistance rate (NCCLS M100-S13): 0%
K. pneumoniae
  MIC: 4 µg/mL (≈ 6.83 µM)
Pseudomonas aeruginosa
  Susceptible isolates: 100%
E. coli
  per cent susceptible: 99%
Escherichia coli; paediatric surgical unit (PSU)
  susceptibility rate: 62%
Escherichia coli; paediatric units (PU)
  susceptibility rate: 99%
[8]
  resistance rate (NCCLS M100-S13): 1%

## CC1(C)S[C@@H]2[C@H](NC(=O)[C@H](NC(=O)N3CCNC3=O)c3ccccc3)C(=O)N2[C@H]1C(=O)O [azlocillin]
P. aeruginosa
  resistance: 73.3%

## N[C@@H](C(=O)N[C@@H]1C(=O)N2C(C(=O)O)=C(Cl)CS[C@H]12)c1ccccc1 [cefaclor]
S. pneumoniae
  Susceptibility: 82.5%
H. influenzae
  susceptible: 92.1%

## Cc1nnc(SCC2=C(C(=O)O)N3C(=O)[C@@H](NC(=O)Cn4cnnn4)[C@H]3SC2)s1 [cefazolin]
Shigella spp.
  sensitive: 80%
[9]
  significant biofilm killing: not achieved
MSSA; Staphylococcus aureus, MSSA
  MIC50: < 0.5 µg/mL
  MIC90: < 1 µg/mL
MSSA; n = 200
  MIC range: 250 to 1000 µg/mL

## CC=CC1=C(C(=O)O)N2C(=O)[C@@H](NC(=O)[C@H](N)c3ccc(O)cc3)[C@H]2SC1 [cefprozil]
S. pneumoniae
  Susceptibility: 87.3%
H. influenzae
  susceptible: 93.3%

## O=C(N[C@H](CO)[C@H](O)c1ccc([N+](=O)[O-])cc1)C(Cl)Cl [chloramphenicol]
Acinetobacter
  resistant isolates: 100.0%
S. pneumoniae (SPN); 1998
  % S: 99%
S. pneumoniae (SPN); 1999
  % S: 98%
S. pneumoniae (SPN); 2000
  % S: 99%
S. pneumoniae (SPN); 2001
  % S: 100%
S. pneumoniae (SPN); 2002
  % S: 99%
S. pneumoniae (SPN); 2003
  % S: 100%
Salmonella spp.
  resistance: 41%
Escherichia coli O157:H7
  resistant strains: 6%
H. influenzae (HI); 1998
  % S: 96%
H. influenzae (HI); 1999
  % S: 99%
H. influenzae (HI); 2000
  % S: 97%
H. influenzae (HI); 2001
  % S: 95%
H. influenzae (HI); 2002
  % S: 93%
H. influenzae (HI); 2003
  % S: 96%
Nontyphoidal Salmonella; Belgian collection (caecal samples; Belgium, France, Netherlands)
  resistance: 8%
Nontyphoidal Salmonella; Germany (carcass meat)
  resistance: 4%
